Results: ChEMBL document CHEMBL3727365, “Compounds that modulate intracellular calcium” (2012)

Key:
Jurkat = assay: Inhibition of PHA/TPA-induced IL2 release in human Jurkat T cells preincubated for 10 mins followed by PHA/TPA stimulation measured after […] by ELISA; assay type: functional, cell-based
[1] = biological target: ORAI1/STIM1 (Homo sapiens) (UniProt Q96D31+Q13586); assay: Inhibition of recombinant human STIM1/Orai1 expressed in HEK293 cells assessed as inhibition of peak basal signal after 30 mins by fluo4-AM dye-based FLIPR assay; assay type: cell-based
Sequence of ORAI1/STIM1 (Homo sapiens) (Q13586 23-685 partner limits assumed): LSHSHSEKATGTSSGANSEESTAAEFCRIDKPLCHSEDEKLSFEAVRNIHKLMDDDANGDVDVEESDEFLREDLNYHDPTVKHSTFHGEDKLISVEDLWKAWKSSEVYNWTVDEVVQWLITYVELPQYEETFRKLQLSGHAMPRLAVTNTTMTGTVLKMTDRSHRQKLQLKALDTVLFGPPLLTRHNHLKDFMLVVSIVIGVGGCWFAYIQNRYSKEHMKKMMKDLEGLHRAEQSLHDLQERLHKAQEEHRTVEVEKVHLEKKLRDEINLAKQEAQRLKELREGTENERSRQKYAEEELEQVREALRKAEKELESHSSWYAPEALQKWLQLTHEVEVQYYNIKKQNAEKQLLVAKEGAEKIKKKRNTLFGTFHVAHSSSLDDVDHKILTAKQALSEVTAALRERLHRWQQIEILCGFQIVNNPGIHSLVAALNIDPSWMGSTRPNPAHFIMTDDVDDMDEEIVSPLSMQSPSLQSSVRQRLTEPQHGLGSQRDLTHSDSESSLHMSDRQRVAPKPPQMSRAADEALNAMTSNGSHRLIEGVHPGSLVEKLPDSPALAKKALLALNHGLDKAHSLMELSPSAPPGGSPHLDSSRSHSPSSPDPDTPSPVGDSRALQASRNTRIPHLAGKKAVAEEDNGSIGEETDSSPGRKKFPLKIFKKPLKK
Sequence of ORAI1/STIM1 (Homo sapiens) (Q96D31 whole entry): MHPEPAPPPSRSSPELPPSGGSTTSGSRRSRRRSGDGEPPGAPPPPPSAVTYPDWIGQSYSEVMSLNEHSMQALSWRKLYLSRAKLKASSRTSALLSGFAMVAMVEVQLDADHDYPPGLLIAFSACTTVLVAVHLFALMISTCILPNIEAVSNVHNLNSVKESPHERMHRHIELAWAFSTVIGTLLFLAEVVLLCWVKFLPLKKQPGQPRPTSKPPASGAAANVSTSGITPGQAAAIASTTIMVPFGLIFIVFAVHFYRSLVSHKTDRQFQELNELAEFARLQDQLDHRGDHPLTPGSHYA

Structure (SMILES) | IC50 (Jurkat) | Efficacy [1]
Cn1nc(-c2nccs2)cc1-c1ccc(C(=O)Nc2ccccc2F)s1 | < 0.05 µM | –
Cn1nc(-c2ccco2)cc1-c1ccc(C(=O)Nc2ncccc2F)s1 | > 0.1 µM | –
Cn1nc(-c2ccccc2F)cc1-c1ccc(C(=O)Nc2ccncc2F)s1 | < 0.05 µM | –
Cn1nc(-c2ccccc2F)cc1-c1ccc(C(=O)Nc2ncc(Cl)cc2F)s1 | < 0.05 µM | –
Cn1nc(-c2ccccc2F)cc1-c1ccc(C(=O)Nc2c(F)cncc2F)s1 | < 0.05 µM | –
Cn1nc(-c2ccccc2F)cc1-c1ccc(C(=O)Nc2ncccc2F)s1 | 0.05 µM | –
Cc1nc2cc(Cl)c(-c3cnc(NC(=O)c4ccccc4Cl)s3)cc2o1 | 0.05 µM | –
Cn1nc(-c2ccco2)cc1-c1ccc(C(=O)Nc2c(F)cncc2F)s1 | < 0.05 µM | –
Cn1nc(-c2ccco2)cc1-c1ccc(C(=O)Nc2ccncc2F)s1 | < 0.05 µM | –
Cn1nc(C(F)(F)F)cc1-c1ccc(NC(=O)c2ccncc2F)s1 | – | < 50%
Cn1nc(C(F)(F)F)cc1-c1cnc(NC(=O)c2ccccc2F)s1 | < 0.05 µM | –
Cn1nc(-c2ccco2)cc1-c1ccc(C(=O)Nc2ncc(Cl)cc2F)s1 | < 0.05 µM | –
Cn1nc(-c2ccco2)cc1-c1ccc(C(=O)Nc2ccccc2Cl)s1 | 0.05 µM | –
Cn1nc(-c2ccccc2)cc1-c1ccc(C(=O)Nc2ccncc2F)s1 | 0.05 µM | –
Cn1nc(-c2nccs2)cc1-c1ccc(C(=O)Nc2ccncc2F)s1 | < 0.05 µM | –
Cc1ccccc1C(=O)Nc1ncc(-c2cc(C(F)(F)F)nn2C)s1 | – | < 50%
Cn1nc(-c2ccccc2)cc1-c1ccc(C(=O)Nc2ccccc2F)s1 | > 0.1 µM | –
Cn1nc(-c2nccs2)cc1-c1ccc(C(=O)Nc2ncc(Cl)cc2F)s1 | < 0.05 µM | –
